From patent US11319313B2, “Crystalline forms of deuterium-enriched pioglitazone” (Poxel SA, priority 2020, dated 2022)
Marks after values point to notes of the source that are not given here.

Key:
[1] = 13-week dog toxicology study, toxicokinetics on day 91; details: for AUC0-24,ss, total pioglitazone: Day 91, oral capsule 5 mg/kg/day
[2] = Dog pharmacokinetic (PK) study, single oral administration; type: in vivo, Beagle dogs
Procedure: The 3 Beagle male dogs were fasted before dosing. Then all test drugs were administered by the oral route using API in a capsule. [table] Food was given no sooner than one hour after dose administration on the days of treatment. Each administration was separated by a wash-out period of at least 2 days. […] Predose (just before dosing) and then […] after dosing.

[3] = Phase Ib repeated-dose PK study in healthy human subjects; type: in vivo; details: for AUC0-24,ss, total pioglitazone / AUC0-24, ss dose normalized, total pioglitazone: steady state; for AUC0-24,ss, total pioglitazone: fasting
Procedure: Subjects were screened within 28 days before their first dose of study medication. They stayed in the clinic from 1 day before dosing (Day −1) until at least 48 hours after their final dose of trial medication (Day 11).
Each dose group was composed of 4 males and 4 females in a 3:1 active/placebo ratio. • One (1) Actos® group: 6 subjects (3 males and 3 females) were given Actos®. Placebo was not given to any subjects in this group.
Subjects received a single oral dose of study drug (7.5, 15, or 30 mg tablets of PXL065 or matching placebo tablets, or 45 mg Actos® tablets), under fasting conditions on Day 1. […] All study drugs were dosed in fasting conditions.
The PXL065 PK parameters of the three single oral doses on Day 1 and after seven daily administrations on Day 9 were compared to the Actos® PK parameters on Day 1 and after seven daily administrations on Day 9.
PXL065, orally administered. Dose=1×7.5 mg tablet, 1×15 mg tablet, or 1×30 mg tablet.
(§1) Actos®, orally administered. Dose=1×45 mg, tablet.
One single oral administration of PXL065 or matching placebo or Actos® was given on Day 1 in fasting conditions followed by once daily multiple oral administrations of PXL065 or matching placebo or Actos® from Day 3 to Day 9 (7 days) in fasting conditions.
Pharmacokinetics: Plasma samples were analyzed using a validated assay. The samples from all evaluable subjects were analyzed. Samples from subjects who experienced emesis within 4 hours of dosing were not analyzed.
Plasma PK parameters included, but were not limited to: • Following single dose on Day 1 and Day 3 (for PXL065 groups): tmax, tlag, Cmax, AUC0-last, AUC0-24, AUC0-inf, λz, t1/2, % AUCext, CL/F, Vz/F, Cmax/Dose, AUC0-last/Dose, AUC0-inf/Dose and MRT each calculated using compartmental or non-compartmental methods as appropriate for the deuterated and protonated (R)- and (S)-enantiomers of pioglitazone. • Day 4 to Day 9: Ctrough for the deuterated and protonated (R)- and (S)-enantiomers of pioglitazone; and • Following repeated doses on Day 9: tmax, Cmax, Cavg, tlag, AUC0-last, AUC0-24, AUC0-inf, λz, t1/2, % AUCext, CLss/F, Vzss/F, MRT, PTF, Rac(AUC0-24), Rac(Cmax) SR(AUC), Cmax/Dose, AUC0-last/Dose, AUC0-inf/Dose, AUC0-24/Dose. Safety

[4] = Phase Ia single-dose PK study in healthy human subjects; type: in vivo; details: single oral dose 22.5 mg capsule
Procedure: PXL065, orally administered.
as §1

[5] = Solubility of crystalline HCl salt in various solvents (visual dissolution); type: physicochemical; details: 22 °C, thermodynamic from solid, ambient temperature, visual inspection
Procedure: […]; (ii) the resulting mixtures were then stirred at ambient temperature (about 21° C. to about 23° C.) for 5-10 minutes; (iii) the mixtures were then visually inspected to determine if the crystalline HCl salt had completely dissolved; (iv) if the crystalline HCl salt had not completely dissolved more solvent was added until complete dissolution occurred. Quantitative testing: (i) 100 mg of crystalline HCl salt was added to 4 vol. of each solvent (0.4 mL) dimethylformamide, methanol and DMSO; (ii) the resulting mixtures were then stirred at ambient temperature (about 20° C. to about 25° C.) for 5-10 minutes; (iii) the mixtures were then visually inspected to determine if the crystalline HCl salt had completely dissolved; (iv) if the crystalline HCl salt had not completely dissolved more solvent was added until complete dissolution occurred.
The solubilities were then calculated using the total quantity of crystalline HCl salt and solvent used for each solvent.

[6] = pH-dependent solubility of crystalline salts (48 h equilibration, HPLC); type: physicochemical; details: for solubility at 48 h: 22 °C, thermodynamic from solid
Procedure: The pH-dependent solubility profiles of the crystalline DCl salt form of deuterium-enriched (R)-pioglitazone, and crystalline pioglitazone HCl were determined at room temperature (about 21° C. to about 23° C.) in the pH range of 0.3-7.6. For the crystalline HCl salt form of deuterium-enriched (R)-pioglitazone, the pH-dependent solubility profile was measured at room temperature (about 21° C. to about 23° C.) in the pH range of 0.3-3.5.
For the crystalline DCl salt form of deuterium-enriched pioglitazone, the pH-dependent solubility profile was measured at room temperature (about 21° C. to about 23° C.) in the pH range of 0.7-3.5.
Suspensions of the three crystalline forms were prepared in water or USP buffer solutions. The pH of the suspensions was adjusted through the addition of 0.1 M HCl or 0.1 M NaOH. For the preparation of suspensions with a pH of 0.5 or lower, the pH was adjusted using 1 M HCL.
The suspensions were then allowed to equilibrate at room temperature (about 21° C. to about 23° C.) for 48 hours. After equilibration the solid phases were separated from the liquid phases by centrifugation, subsequently dried and then analyzed by XRPD. The concentration of deuterium-enriched (R)-pioglitazone or pioglitazone in the liquid phases (mother liquors) was determined by HPLC (see HPLC method described in Example 5).

in vivo = details: beagle, dog, plasma, po, 10 mg/kg/day
[7] = single oral 5 mg/kg (capsule), fasted male dogs, plasma, mean

**Q.** For `[2H][C@]1(Cc2ccc(OCCc3ccc(CC)cn3)cc2)SC(=O)NC1=O` [PXL065, deuterium-enriched (R)-pioglitazone], which “AUC0-24, ss dose normalized, total pioglitazone” value (from here on “AUC0-24, ss dose normalized”) ([1]; female dogs (F), Day 91, 5 mg/kg/day) is on record?
**A.** The value was 1762 ng·h/mL.

**Q.** What about the “AUC0-24,ss, total pioglitazone” value ([1]; female dogs (F)) of the same compound?
**A.** The value was 8710 ng·h/mL.

**Q.** What about the “AUC0-24, ss dose normalized” value ([1]; male dogs (M), Day 91, 5 mg/kg/day) of the same compound?
**A.** Its value is 2180 ng·h/mL.

**Q.** What about the “AUC0-24,ss, total pioglitazone” value ([1]; male dogs (M)) of the same compound?
**A.** The value was 10900 ng·h/mL.

**Q.** What about the “AUC0-24, Total Pio” value ([2]; dog, in vivo, po, 5 mg/kg) of the same compound?
**A.** Its value is 7000 ng·h/mL.

**Q.** And the “AUC0-24, Total R-pio” value ([2]; dog, in vivo, po, 5 mg/kg)?
**A.** Its value is 5770 ng·h/mL.

**Q.** What about the “AUC0-24, Total S-pio” value ([2]; dog, in vivo, po, 5 mg/kg) of the same compound?
**A.** Its value is 1240 ng·h/mL.

**Q.** What about the “Cmax, Total Pio” value ([2]; dog, in vivo, po, 5 mg/kg) of the same compound?
**A.** Its value is 1520 ng/mL.

**Q.** And the “Cmax, Total R-pio” value ([2]; dog, in vivo, po, 5 mg/kg)?
**A.** Its value is 1330 ng/mL.

**Q.** What about the “Cmax, Total S-pio” value ([2]; dog, in vivo, po, 5 mg/kg) of the same compound?
**A.** Its value is 227 ng/mL.

**Q.** And the “Tmax, Total Pio” value ([2]; dog, in vivo, po, 5 mg/kg)?
**A.** Its value is 1 h.

**Q.** What about the “Tmax, Total R-pio” value ([2]; dog, in vivo, po, 5 mg/kg) of the same compound?
**A.** Its value is 1 h.

**Q.** And the “Tmax, Total S-pio” value ([2]; dog, in vivo, po, 5 mg/kg)?
**A.** The value was 2 h.

**Q.** What about the “T1/2z, Total Pio” value [2, 7] of the same compound?
**A.** Its value is 1.46^a h.

**Q.** And the “T1/2z, Total R-pio” value [2, 7]?
**A.** The value was 1.43^a h.

**Q.** What about the “T1/2z, Total S-pio” value [2, 7] of the same compound?
**A.** The value was 1.62^a h.

**Q.** What about the “AUC0-24,ss, total pioglitazone” value ([3]; 15 mg tablet once daily, repeated doses) of the same compound?
**A.** Its value is 6505 ng·h/mL.

**Q.** What about the “AUC0-24, ss dose normalized” value ([3]; 15 mg tablet) of the same compound?
**A.** Its value is 434 ng·h/mL/mg.

**Q.** And the “AUC0-24,ss, total pioglitazone” value ([3]; 30 mg tablet once daily, repeated doses)?
**A.** The value was 13802 ng·h/mL.

**Q.** What about the “AUC0-24, ss dose normalized” value ([3]; 30 mg tablet) of the same compound?
**A.** The value was 460 ng·h/mL/mg.

**Q.** What about the “Increase of relative bioavailability compared to Actos” value ([3]; humans, repeated doses) of the same compound?
**A.** The value was 55%-65%.

**Q.** And the “AUCinf dose normalized, total pioglitazone” value [4]?
**A.** The value was 618 ng·h/mL/mg.

**Q.** And the “AUCinf, total pioglitazone” value ([4]; fasted healthy subjects)?
**A.** The value was 13896 ng·h/mL.

**Q.** For `[2H][C@]1(Cc2ccc(OCCc3ccc(CC)cn3)cc2)SC(=O)NC1=O` [deuterium-enriched (R)-pioglitazone], which Solubility ([5]; organic solvent or mixture, DMSO) is on record?
**A.** Its Solubility is > 50000 µg/mL.

**Q.** What about the Solubility ([5]; organic solvent or mixture, Dichloromethane) of the same compound?
**A.** Its Solubility is 5000 to 10000 µg/mL.

**Q.** What about the Solubility ([5]; organic solvent or mixture, Ethanol) of the same compound?
**A.** The Solubility was 5000 to 10000 µg/mL.

**Q.** And the Solubility ([5]; organic solvent or mixture, Ethyl acetate)?
**A.** Its Solubility is 5000 to 10000 µg/mL.

**Q.** What about the Solubility ([5]; organic solvent or mixture, Methanol) of the same compound?
**A.** Its Solubility is ~50000 µg/mL.

**Q.** What about the Solubility ([5]; organic solvent or mixture, N,N-dimethylformamide) of the same compound?
**A.** Its Solubility is ~50000 µg/mL.

**Q.** What about the Solubility ([5]; organic solvent or mixture, Tetrahydrofuran) of the same compound?
**A.** Its Solubility is 5000 to 10000 µg/mL.

**Q.** What about the Solubility ([5]; organic solvent or mixture, Toluene) of the same compound?
**A.** The Solubility was 5000 to 10000 µg/mL.

**Q.** What about the Solubility ([5]; Water) of the same compound?
**A.** Its Solubility is 5000 to 10000 µg/mL.

**Q.** What about the solubility at 48 h ([6]; pH 0.5, aqueous buffer) of the same compound?
**A.** Its solubility at 48 h is 2330 µg/mL.

**Q.** What about the solubility at 48 h ([6]; pH 0.6, aqueous buffer) of the same compound?
**A.** Its solubility at 48 h is 2600 µg/mL.

**Q.** What about the solubility at 48 h ([6]; pH 0.7, aqueous buffer) of the same compound?
**A.** The solubility at 48 h was 3270 µg/mL.

**Q.** What about the solubility at 48 h ([6]; pH 0.8, aqueous buffer) of the same compound?
**A.** The solubility at 48 h was 3770 µg/mL.

**Q.** What about the solubility at 48 h ([6]; pH 1.4, simulated gastric fluid) of the same compound?
**A.** The solubility at 48 h was 5250 µg/mL.

**Q.** And the solubility at 48 h ([6]; pH 1.6, simulated gastric fluid)?
**A.** The solubility at 48 h was 3470 µg/mL.

**Q.** And the solubility at 48 h ([6]; pH 3, aqueous buffer)?
**A.** Its solubility at 48 h is 200 µg/mL.

**Q.** And the solubility at 48 h ([6]; pH 5.7, aqueous buffer)?
**A.** Its solubility at 48 h is < 50 µg/mL.

**Q.** And the “Solubility (in words)” value ([6]; pH 4)?
**A.** Its value is “practically insoluble”.

**Q.** For `CCc1ccc(CCOc2ccc(CC3SC(=O)NC3=O)cc2)nc1` (racemic) [Pioglitazone], which AUC(0-t) (in vivo; female) is on record?
**A.** Its AUC(0-t) is 5620 ng·h/mL.

**Q.** What about the AUC(0-t) (in vivo; male) of the same compound?
**A.** The AUC(0-t) was 2970 ng·h/mL.

**Q.** What about the “AUC0-24, ss dose normalized” value ([1]; female dogs (F), Day 91, 10 mg/kg/day) of the same compound?
**A.** Its value is 562 ng·h/mL.

**Q.** What about the “AUC0-24, ss dose normalized” value ([1]; male dogs (M), Day 91, 10 mg/kg/day) of the same compound?
**A.** The value was 297 ng·h/mL.
